Assay results as given in patent publication US8722665B2, “Cinnamido-pyrrolo[2,1-C][1,4]benzodiazepines as potential anticancer agents and process for the preparation thereof” (Council of Scientific & Industrial Research, priority 2008, dated 2014).

Test system: duplex-form calf thymus DNA (CT-DNA)
Assay: Thermal denaturation studies with calf thymus DNA
Type: binding
Conditions: [PBD]:[DNA] molar ratio 1:5, CT-DNA 100 μM, ligand 20 μM, pH 7.00; for (ΔTm ° C.) after incubation at 37° C. for 0 h: 0 h incubation at 37° C.; for (ΔTm ° C.) after incubation at 37° C. for 18 h: 18 h incubation at 37° C.
Method: Compounds have been subjected to thermal denaturation studies with duplex-form calf thymus DNA (CT-DNA) using an modification of a reported procedure (Newman, M. S. Carcinog-compr. Surv. 1976, 1, 203; (b) Hecht, S. S.; Loy, M.; Hoffman, Carcinog-compr. Surv. 1976, 1, 325). Working solutions in aqueous buffer (10 mM NaH2PO4/Na2HPO4, 1 mM Na2EDTA, pH 7.00+0.01) containing CT-DNA (100 μm in phosphate) and the PBD (20 μm) have been prepared by addition of concentrated PBD solutions in DMSO to obtain a fixed [PBD]/[DNA] molar ratio of 1:5. The DNA-PBD solutions have been incubated at 37° C. for 0 and 18 h prior to analysis. Samples have been monitored at 260 nm using a Beckman DU-800 spectrophotometer fitted with high performance temperature controller, and heated at 1° C. min^−1 in the 40-110° C. range. DNA helix→coil transition temperatures (Tm) have been obtained from the maxima in the d(A260)/dT derivative plots. Drug-induced alterations in DNA melting behavior are given by: ΔTm=Tm(DNA+PBD)−Tm(DNA alone), where the Tm value for the PBD-free CT-DNA is 69.1±0.01.
The DNA binding activity for these Cinnamido-pyrrolo[2,1-c][1,4]benzodiazepines have been examined by thermal denaturation studies using calf thymus (CT) DNA. […] The data for the compounds 8b&d, 11b&d, 14b&d and 17b&d is included in Table 1 for comparison.

Row | Molecule | (ΔTm ° C.) after incubation at 37° C. for 0 h [°C] | (ΔTm ° C.) after incubation at 37° C. for 18 h [°C]
1 | 1,1′-{[(E-3-bis pentyloxy-3-methoxy phenyl)-1-4-piperzino]-2-propene-1-one]dioxy}bis(11aS)-7-methoxy-1,2,3,11a-tetrahydro-5H-pyrrolo[2,1-c][1,4]benzo diazepine-5-one [17d] | 8.1 | 9.2
2 | 1,1′-{[(E-3-bis propoxy-3-methoxy phenyl)-1-4-piperzino]-2-propene-1-one}dioxy}bis(11aS)-7-methoxy-1,2,3,11a-tetrahydro-5H-pyrrolo[2,1-c][1,4]benzo diazepine-5-one [17b] | 4.0 | 5.1
3 | COc1cc(/C=C/C(=O)N2CCN(C(=O)c3cc(OC)c(OC)c(OC)c3)CC2)ccc1OCCCCCOc1cc2c(cc1OC)C(=O)N1CCC[C@H]1C=N2 [8d, 7-methoxy-8-{5-(2-methoxy-4-(E)-3-oxo-3-[4-(3,4,5-trimethoxybenzoyl)piperazino]-1-propenylphenoxy)pentyloxy}-(11aS)-2,3,5,11^a-tetrahydro-5H-pyrrolo[2,1-c][1,4]benzo-diazepine-5-one] | 1.5 | 2.5
4 | COc1cc(/C=C/C(=O)N2CCN(C)CC2)ccc1OCCCOc1cc2c(cc1OC)C(=O)N1CCC[C@H]1C=N2 [11b, 7-methoxy-8-(3-2-methoxy-4-[(E)-3-(4-methylpiperazino)-3-oxo-1-propenyl-phenoxy]propoxy)-(11aS)-2,3,5,11^a-tetrahydro-5H-pyrrolo[2,1-c][1,4]benzodiazepine-5-one] | 4.0 | 5.0
5 | COc1cc(/C=C/C(=O)N2CCN(C)CC2)ccc1OCCCCCOc1cc2c(cc1OC)C(=O)N1CCC[C@H]1C=N2 [11d, 7-methoxy-8-(5-2-methoxy-4-[(E)-3-(4-methylpiperazino)-3-oxo-1-propenyl-phenoxy]pentyloxy)-(11aS)-2,3,5,11^a-tetrahydro-5H-pyrrolo[2,1-c][1,4]benzodiazepine-5-one] | 7.9 | 8.8
6 | COc1cc(/C=C/C(=O)N2CCOCC2)ccc1OCCCOc1cc2c(cc1OC)C(=O)N1CCC[C@H]1C=N2 [14b, 7-methoxy-8-(3-2-methoxy-4-[(E)-3-morpholino-3-oxo-1-propenylphenoxy]propoxy)-(11aS)-2,3,5,11^a-tetrahydro-5H-pyrrolo[2,1-c][1,4]benzodiazepine-5-one] | 3.0 | 4.2
7 | COc1cc(/C=C/C(=O)N2CCOCC2)ccc1OCCCCCOc1cc2c(cc1OC)C(=O)N1CCC[C@H]1C=N2 [14d, 7-methoxy-8-(5-2-methoxy-4-[(E)-3-morpholino-3-oxo-1-propenylphenoxy]pentyloxy)-(11aS)-2,3,5,11^a-tetrahydro-5H-pyrrolo[2,1-c][1,4]benzodiazepine-5-one] | 7.1 | 8.2
8 | COc1cc2c(cc1O)N=CC1CCCN1C2=O (stereo not shown) [DC-81, reference compound] | 0.3 | 0.7
